Data on 10 compounds can be found in ChEMBL document CHEMBL1201862, “PubChem BioAssay data set” (2004).

Test systems include HT-29; NCI-H23; UACC-62; SK-OV-3; HCT-15; DMS-273; NCI-H226; HOP-92; Malme-3M; SF-268; OVCAR-5; RXF 393; HL-60; TK-10; SK-MEL-5; SF-539; OVCAR-8; PC-3; BT-549; DU-145.
What all share (test): NCI-60 cell line screen, 48 h

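Grown in 96-well plates, cells were treated for 48 hours with each compound at five concentrations. Insufficient inhibition: endpoint recorded as highest concentration tested. Abbreviation: GI50, concentration required for 50% inhibition of growth.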 Activity calls are given as the source filed them. Cut-off read from the data, not from the text of the source: active = GI50 up to about 1.1 µM and inactive = higher.

Take `O=C(/C=C/c1ccccc1)/C=C/c1ccccc1`: the GI50 in the test on HT-29 was 17.8 µM (inactive); with NCI-H23, 29.7 µM (inactive); in the test with UACC-62, 33 µM (inactive); with SK-OV-3, 43 µM (inactive); in the test on HCT-15, 23.6 µM; in the test with DMS-273, 38.7 µM (inactive). The GI50 in the test on NCI-H226 was > 100 µM (inactive); with HOP-92, 34.8 µM (inactive); in the test on Malme-3M it was 21.8 µM (inactive); in the test with SF-268 it was 28.4 µM (inactive); in the test on OVCAR-5, > 100 µM (inactive); with RXF 393 it was 34.4 µM (inactive). Besides, the GI50 was 23.2 µM (inactive) with HL-60, 58.2 µM (inactive) with TK-10, 33.1 µM (inactive) with SK-MEL-5 and 19.5 µM (inactive) with SF-539.
`CNS(=O)(=O)NNS(=O)(=O)c1ccccc1`: the GI50 was > 100 µM (inactive) in the test with HT-29; > 100 µM (inactive) in the test with NCI-H23; > 100 µM (inactive) with UACC-62; > 100 µM (inactive) with SK-OV-3; greater than 100 µM with HCT-15; > 100 µM (inactive) in the test on DMS-273. The GI50 in the test on NCI-H226, with HOP-92, in the test on Malme-3M, in the test on OVCAR-8, in the test with SF-268 and in the test on OVCAR-5 was > 100 µM (inactive) throughout. The GI50 with RXF 393, in the test with HL-60, with TK-10, with SK-MEL-5 and in the test on SF-539 was > 100 µM (inactive) each time.
Consider `O=C(O)CNS(=O)(=O)c1ccc(NC(=O)c2cccc([N+](=O)[O-])c2)cc1`, for which the GI50 with HT-29 was > 100 µM (inactive); in the test with NCI-H23 it was > 100 µM (inactive); with UACC-62, > 100 µM (inactive); in the test with SK-OV-3, > 100 µM (inactive); in the test on HCT-15 it was greater than 100 µM; with DMS-273, > 100 µM (inactive). Further, the GI50 in the test on NCI-H226, with HOP-92, with Malme-3M, in the test on OVCAR-8, in the test with SF-268 and with OVCAR-5 was > 100 µM (inactive) in each case. Besides, the GI50 in the test on RXF 393, in the test on HL-60, with TK-10, in the test with SK-MEL-5 and in the test with SF-539 was > 100 µM (inactive) throughout.
In the case of `C=C(CCCCC)CN1CCCC1[C@@](C)(O)CC(=O)OCC` (stereo partly drawn), the GI50 was > 100 µM (inactive) in the test with HT-29; > 100 µM (inactive) in the test with NCI-H23; > 100 µM (inactive) in the test with UACC-62; > 100 µM (inactive) with SK-OV-3; greater than 100 µM with HCT-15; > 100 µM (inactive) with DMS-273. In addition, the GI50 in the test on NCI-H226, with HOP-92, in the test with Malme-3M, with OVCAR-8, with SF-268 and in the test with OVCAR-5 was > 100 µM (inactive) throughout. The GI50 was > 100 µM (inactive) with RXF 393; 28.6 µM (inactive) with HL-60; > 100 µM (inactive) in the test with TK-10; > 100 µM (inactive) in the test on SK-MEL-5; > 100 µM (inactive) in the test on SF-539.
Take `COc1ccc(C2=CN3CCC[C@H]3C=C2c2cc(O)c(OC)c(OC)c2)cc1OC`: the GI50 was 0.0056 µM (active) with HT-29; 0.00378 µM (active) in the test with NCI-H23; 0.00405 µM (active) in the test with UACC-62; 0.00564 µM (active) in the test with SK-OV-3; 0.00362 µM with HCT-15; 0.00354 µM (active) in the test with DMS-273. The GI50 was 0.00376 µM (active) with NCI-H226; 0.0038 µM (active) in the test on HOP-92; 0.0124 µM (active) in the test on PC-3; 0.00421 µM (active) with Malme-3M; 0.00377 µM (active) in the test on OVCAR-8; 0.00454 µM (active) in the test on SF-268. Further, the GI50 in the test with OVCAR-5 is 0.00561 µM (active); in the test on RXF 393, 0.00424 µM (active); in the test with BT-549 it was 0.0207 µM (active); in the test with HL-60, 0.00351 µM (active); with DU-145, 0.00398 µM (active); with TK-10 it was 0.00859 µM (active). For the same compound, the GI50 in the test on SK-MEL-5 was 0.0038 µM (active); in the test with SF-539, 0.00505 µM (active).
For `O=C(OCCOCCOC(=O)c1c[nH]cc1-c1ccccc1)c1c[nH]cc1-c1ccccc1`, the GI50 in the test on HT-29 is 18.8 µM (inactive); in the test on NCI-H23 it was 17.1 µM (inactive); in the test on UACC-62, 15.9 µM (inactive); in the test on SK-OV-3, 35.1 µM (inactive); with HCT-15 it was 19.2 µM; in the test with DMS-273, 15.9 µM (inactive). Further, the GI50 was 19.2 µM (inactive) with NCI-H226; 20.3 µM (inactive) with HOP-92; 18.9 µM (inactive) in the test with Malme-3M; 29.4 µM (inactive) with OVCAR-8; 15.5 µM (inactive) with SF-268; 25.8 µM (inactive) with OVCAR-5. For the same compound, the GI50 in the test on RXF 393 is 15.4 µM (inactive); in the test on HL-60 it was 17.9 µM (inactive); in the test on TK-10, 30.3 µM (inactive); in the test with SK-MEL-5 it was 16.8 µM (inactive); in the test on SF-539, 17.9 µM (inactive).
As for `COC(=O)/C(=N\NC(C)(C)C)C(C(=O)OC)C(=O)C(=O)Nc1cc(Cl)ccc1Cl` (stereo not drawn), the GI50 is > 100 µM (inactive) in the test with HT-29; > 100 µM (inactive) with NCI-H23; > 100 µM (inactive) in the test on UACC-62; > 100 µM (inactive) in the test on SK-OV-3; greater than 100 µM with HCT-15; > 100 µM (inactive) with DMS-273. Also, the GI50 in the test on NCI-H226, in the test with HOP-92, in the test with Malme-3M, in the test on OVCAR-8, in the test on SF-268 and in the test with OVCAR-5 was > 100 µM (inactive) throughout. The GI50 in the test on RXF 393, in the test on HL-60, with TK-10, with SK-MEL-5 and in the test with SF-539 was > 100 µM (inactive) each time.
Turning to `C1C[N+]23CCC[N+]2(C1)CCC3` (stereo not drawn), the GI50 with HT-29 was > 100 µM (inactive); in the test on NCI-H23, > 100 µM (inactive); in the test on UACC-62, > 100 µM (inactive); in the test with SK-OV-3, > 100 µM (inactive); with HCT-15, greater than 100 µM; in the test on DMS-273, > 100 µM (inactive). The GI50 in the test on NCI-H226, in the test with HOP-92, in the test with Malme-3M, in the test with OVCAR-8, in the test on SF-268 and with OVCAR-5 was > 100 µM (inactive) throughout. Besides, the GI50 with RXF 393 was > 100 µM (inactive); in the test with HL-60, 31.1 µM (inactive); in the test on TK-10 it was > 100 µM (inactive); in the test with SK-MEL-5 it was > 100 µM (inactive); in the test with SF-539, > 100 µM (inactive).
Take `Nc1ccc(C(=O)Nc2ccccc2N)cc1` [DINALINE]: the GI50 is 25.9 µM (inactive) in the test on HT-29; 29.1 µM (inactive) with NCI-H23; 16.1 µM (inactive) in the test on UACC-62; > 100 µM (inactive) in the test with SK-OV-3; 54 µM in the test on HCT-15; 59.7 µM (inactive) in the test with DMS-273. In addition, the GI50 with NCI-H226 was > 78.5 µM (inactive); in the test on HOP-92, 37.9 µM (inactive); in the test with PC-3, 31.5 µM (inactive); in the test with Malme-3M, 5.92 µM (inactive); in the test on OVCAR-8 it was 8.99 µM (inactive); in the test with SF-268, 31.1 µM (inactive). Further, the GI50 with OVCAR-5 was 8.15 µM (inactive); in the test with RXF 393, 38.2 µM (inactive); in the test on BT-549 it was 67.6 µM (inactive); with HL-60 it was 3.37 µM (inactive); in the test on DU-145, 41.7 µM (inactive); with TK-10 it was 6.32 µM (inactive). Also, the GI50 in the test with SK-MEL-5 is 16.3 µM (inactive); in the test on SF-539, 30.4 µM (inactive).
Regarding `CO[C@H]1[C@H](O)[C@H](O[C@H]2CC[C@@]3(C)[C@H](CC[C@@H]4[C@@H]3CC[C@]3(C)[C@@H](C5=CC(=O)OC5)CC[C@]43O)C2)O[C@@H](C)[C@@H]1O` [NERIIFOLIN], the GI50 is 0.000615 µM (active) in the test with HT-29; 0.000394 µM (active) with NCI-H23; 0.00155 µM (active) with UACC-62; 0.00108 µM (active) with SK-OV-3; 0.00112 µM with HCT-15; 0.000548 µM (active) in the test on DMS-273. The GI50 is 0.00596 µM (active) in the test with NCI-H226; 0.00123 µM (active) in the test with HOP-92; 0.000724 µM (active) in the test with PC-3; 0.000428 µM (active) with Malme-3M; 0.00108 µM (active) in the test with OVCAR-8; 0.000444 µM (active) in the test on SF-268. Further, the GI50 with OVCAR-5 is 0.00154 µM (active); in the test with RXF 393, < 0.01 µM (active); in the test on BT-549, 0.000429 µM (active); in the test on HL-60, 0.000419 µM (active); in the test with DU-145 it was < 0.0001 µM (active); with TK-10, 0.000859 µM (active). In addition, the GI50 was 0.000838 µM (active) in the test with SK-MEL-5 and 0.000569 µM (active) with SF-539.
